From patent US8119630B2 (Arrow Therapeutics Limited, priority 2002, dated 2012)

What follows are compounds tested on RSV (assay: XTT assay, RSV-infected Vero cells). Conditions: Table 1; Vero cells infected with RSV, m.o.i.≈0.2, 6 days at 33° C.; read-out: XTT IC50.
Format: cell-based, Respiratory Syncytial Virus (RSV)
Description: Examples 1 to 74 and 83 to 124 were tested using the following protocol.
The inner 60 wells of 96 well tissue culture plates were seeded with Vero cells at 3×10^4 cells/well (1×10^4 cells/well for toxicity studies) in 100 or 150 μl of medium and incubated at 37° C. overnight or until nearing confluency. For primary screen, 25 μl compounds were added directly to 100 μl medium in single wells to duplicate plates. A third plate was prepared for simultaneous toxicity investigation.
For follow-up investigation, 70 μl of compound in duplicate wells were added directly to culture medium at 3.2× final concentration and ½ log serially diluted down columns of plate. A duplicate plate was prepared for simultaneous toxicity investigation.
Cells were infected with 25 μl RSV to give m.o.i.≈0.2. Some 100 μl of sterile distilled water were added to the outer wells of the plate and incubated at 33° C. for 6 days. Some 0.25 μl/ml PMS were added to stock XTT solution, final conc. […]. Then 25 μl warmed XTT/PMS solution were added to each well and incubated for 5 hours at 37° C. Plates were shaken (DynaTech Vari-Shaker) vigorously for 10 mins and allowed to cool for 15 mins before sealing. Absorbance at 450 nm was measured and data analysed using Microsoft Excel software.
Maximum OD450nm reading (uninfected, untreated control cells) corresponded to 100% inhibition. Minimum OD450nm readings (infected control cells) corresponded to 0% inhibition. Log 10 concentration was plotted against OD450nm and IC50 (Table 1) values were calculated from either reading 50% value from graph or using regression analysis.
COc1ccccc1C(=O)NC1N=C(c2ccccc2)c2ccccc2NC1=O (stereo not shown) [Example 11, 2-Methoxy N-(2-oxo-5-phenyl-2,3-dihydro-1H-benzo[e][1,4]diazepin-3-yl)-benzamide] showed an IC50 of 0.5 µM. CS(=O)(=O)NC1N=C(c2ccccc2)c2cc(Cl)ccc2NC1=O (stereo not shown) [Example 53, N-(7-Chloro-2-oxo-5-phenyl-2,3-dihydro-1H-benzo[e][1,4]diazepin-3-yl)-methanesulformide] showed an IC50 of 5 µM. CCCCS(=O)(=O)NC1N=C(c2ccccc2)c2ccccc2NC1=O (stereo not shown) [Example 37, Butane-1-sulfonic acid-(2-oxo-5-phenyl-2,3-dihydro-H-benzo[e][1,4]diazepin-3-yl)-amide] showed an IC50 of 15 µM. For CCCS(=O)(=O)NC1N=C(c2ccccc2)c2ccccc2NC1=O (stereo not shown) [Example 36], the IC50 was 15 µM. O=C(NC1N=C(c2ccccc2)c2ccccc2NC1=O)c1cccs1 (stereo not shown) [Example 14, Thiophene-2-carboxylic acid (2-oxo-5-phenyl-2,3-dihydro-1H-benzo[e][1,4]diazepin-3-yl)-3-amide] showed an IC50 of 1.5 µM. With COc1ccccc1NC(=O)NC1N=C(c2ccccc2)c2ccccc2NC1=O (stereo not shown) [Example 68, (2-Methoxy-phenyl)-3-(2-oxo-5-phenyl-2,3-dihydro-1H-benzo[e][1,4]diazepin-3-yl)-urea] the IC50 was 1 µM.

Same assay, conditions: human respiratory syncytial virus, Vero, 144 h, read-out: XTT IC50 (uM), Table 1; Vero cells infected with RSV, m.o.i.≈0.2, 6 days at 33° C.
In the case of O=C(NC1N=C(c2ccccc2)c2cc(Cl)ccc2NC1=O)C1CCCCC1 (stereo not shown) [Example 56, Cyclohexanecarboxylic acid (7-Chloro-2-oxo-5-phenyl-2,3-dihydro-1H-benzo[e][1,4]diazepin-3-yl)-amide], the IC50 is reported as 5 µM. O=C1Nc2ccccc2C(c2ccccc2)=NC1NCc1ccco1 (stereo not shown) [Example 50, 3-[(Furan-2-ylmethyl)-amino]-5-phenyl-1,3-dihydro-benzo[e][1,4]diazepin-2-one] showed an IC50 of 50 µM. For COc1ccc(CC(=O)NC2N=C(c3ccccc3)c3ccccc3NC2=O)cc1 (stereo not shown) [Example 62, 2-(4-Methoxy-phenyl)-N-(2-oxo-5-phenyl-2,3-dihydro-1H-benzo[e][1,4]diazepin-3-yl)-acetamide], the IC50 was 1.5 µM. For O=C(NC1N=C(c2ccccc2)c2ccccc2NC1=O)c1ccccc1[N+](=O)[O-] (stereo not shown) [Example 26, 2-Nitro-N-(2-oxo-5-phenyl-2,3-dihydro-1H-benzo[e][1,4]diazepin-3-yl)-benzamide], the IC50 was 2 µM. O=C(NC1N=C(c2ccccc2)c2cc(Cl)ccc2NC1=O)c1ccccc1[N+](=O)[O-] (stereo not shown) [Example 59, N-(7-Chloro-2-oxo-5-phenyl-2,3-dihydro-1H-benzo[e][1,4]diazepin-3-yl)-2-nitro-benzamide] showed an IC50 of 5 µM. With COc1cccc(CNC2N=C(c3ccccc3)c3ccccc3NC2=O)c1 (stereo not shown) [Example 46, 3-(3-Methoxy-benzylamino)-5-phenyl-1,3-dihydro-benzo[e][1,4]diazepin-2-one] the IC50 was 30 µM. O=C1Nc2ccccc2C(c2ccccc2)=NC1NCc1cccc([N+](=O)[O-])c1 (stereo not shown) [Example 43, 3-(3-Nitro-benzylamino)-5-phenyl-1,3-dihydro-benzo[e][1,4]diazepin-2-one] showed an IC50 of 30 µM. Compound O=C1Nc2ccccc2C(c2ccccc2)=NC1NS(=O)(=O)c1ccc(Br)cc1 (stereo not shown) [Example 40, 4-Bromo-N-(2-oxo-5-phenyl-2,3-dihydro-1H-benzo[e][1,4]diazepin-3-yl)-benzenesulfonamide] has an IC50 of 10 µM. In the case of O=C(Cc1cccc([N+](=O)[O-])c1)NC1N=C(c2ccccc2)c2ccccc2NC1=O (stereo not shown) [Example 64, 2-(3-Nitro-phenyl)-N-(2-oxo-5-phenyl-2,3-dihydro-1H-benzo[e][1,4]diazepin-3-yl)-acetamide], the IC50 is reported as 1 µM. O=C(NC1N=C(c2ccccc2)c2ccccc2NC1=O)c1ccc2c(c1)CCO2 (stereo not shown) [Example 29, 2,3-Dihydro-benzofuran-5-carboxylic acid (2-oxo-5-phenyl-2,3-dihydro-1H-benzo[e][1,4]diazepin-3-yl)-amide] was tested, and the IC50 was 2 µM. Work on O=C(Nc1ccccc1Cl)NC1N=C(c2ccccc2)c2ccccc2NC1=O (stereo not shown) [Example 70, 1-(2-Chloro-phenyl)-3-(2-oxo-5-phenyl-2,3-dihydro-1H-benzo[e][1,4]diazepin-3-yl)-urea] yielded an IC50 of 1.5 µM. For O=C1Nc2ccccc2C(c2ccccc2)=NC1NC(=O)N1CCOCC1 (stereo not shown) [Example 17, Morpholine-4-carboxylic acid (2-oxo-5-phenyl-2,3-dihydro-1H-benzo[e][1,4]diazepin-3-yl)-amide], the IC50 was 5 µM. For O=C(Cc1ccc([N+](=O)[O-])cc1)NC1N=C(c2ccccc2)c2ccccc2NC1=O (stereo not shown) [Example 63, 2-(4-Nitro-phenyl)-N-(2-oxo-5-phenyl-2,3-dihydro-1H-benzo[e][1,4]diazepin-3-yl)-acetamide], the IC50 was 1.7 µM. For O=C(Nc1ccccc1F)NC1N=C(c2ccccc2)c2ccccc2NC1=O (stereo not shown) [Example 73a, 1-(2-Fluoro-phenyl)-3-(2-oxo-5-phenyl-2,3-dihydro-1H-benzo[e][1,4]diazepin-3-yl)-urea], the IC50 was 1 µM. O=C(NC1N=C(c2ccccc2)c2ccccc2NC1=O)c1cccnc1 (stereo not shown) [Example 34, N-(2-Oxo-5-phenyl-2,3-dihydro-1H-benzo[e][1,4]diazepin-3-yl)-nicotinamide] gave an IC50 of 3 µM. COc1ccccc1CNC1N=C(c2ccccc2)c2ccccc2NC1=O (stereo not shown) [Example 45, 3-(2-Methoxy-benzylamino)-5-phenyl-1,3-dihydro-benzo[e][1,4]diazepin-2-one] was tested, and the IC50 was 20 µM. O=C(Nc1ccc(F)cc1)NC1N=C(c2ccccc2)c2ccccc2NC1=O (stereo not shown) [Example 74, 1-(4-Fluoro-phenyl)-3-(2-oxo-5-phenyl-2,3-dihydro-1H-benzo[e][1,4]diazepin-3-yl)-urea] showed an IC50 of 1.5 µM. O=C(Cc1ccc(C(F)(F)F)cc1)NC1N=C(c2ccccc2)c2ccccc2NC1=O (stereo not shown) [Example 67, N-(2-Oxo-5-phenyl-2,3-dihydro-1H-benzo[e][1,4]diazepin-3-yl)-2-(4-trifluoromethyl-phenyl)-acetamide] gave an IC50 of 1.5 µM. Work on O=C1Nc2ccccc2C(c2ccccc2)=NC1NS(=O)(=O)c1cccc(Br)c1 (stereo not shown) [Example 39, 3-Bromo-N-(2-oxo-5-phenyl-2,3-dihydro-1H-benzo[e][1,4]diazepin-3-yl)-benzenesulfonamide] yielded an IC50 of 10 µM. Compound O=C1Nc2ccccc2C(c2ccccc2)=NC1NCc1ccc([N+](=O)[O-])cc1 (stereo not shown) [Example 44, 3-(4-Nitro-benzylamino)-5-phenyl-1,3-dihydro-benzo[e][1,4]diazepin-2-one] has an IC50 of 10 µM. Compound COc1ccc(C(=O)NC2N=C(c3ccccc3)c3cc(Cl)ccc3NC2=O)cc1 (stereo not shown) [Example 58, N-(7-Chloro-2-oxo-5-phenyl-2,3-dihydro-1H-benzo[e][1,4]diazepin-3-yl)-4-methoxy-benzamide] has an IC50 of 1.2 µM. Work on O=C1Nc2ccccc2C(c2ccccc2)=NC1NS(=O)(=O)c1ccccc1F (stereo not shown) [Example 41, 2-Fluoro-N-(2-oxo-5-phenyl-2,3-dihydro-1H-benzo[e][1,4]diazepin-3-yl)-benzenesulfonamide] yielded an IC50 of 10 µM. O=C(Cc1cccc(C(F)(F)F)c1)NC1N=C(c2ccccc2)c2ccccc2NC1=O (stereo not shown) [Example 66, N-(2-Oxo-5-phenyl-2,3-dihydro-1H-benzo[e][1,4]diazepin-3-yl)-2-(3-trifluoromethyl-phenyl)-acetamide] gave an IC50 of 1.5 µM. For O=C(NC1N=C(c2ccccc2)c2ccccc2NC1=O)c1ccc(Br)cc1 (stereo not shown) [Example 23, 4-Bromo-N-(2-oxo-5-phenyl-2,3-dihydro-1H-benzo[e][1,4]diazepin-3-yl)-benzamide], the IC50 was 5 µM. For O=C(NC1N=C(c2ccccc2)c2ccccc2NC1=O)C1CCCC1 (stereo not shown) [Example 7, Cyclopentanecarboxylic acid (2-oxo-5-phenyl-2,3-dihydro-1H-benzo[e][1,4]diazepin-3-yl)-amide], the IC50 was 2 µM. For CC(C)C(=O)NC1N=C(c2ccccc2)c2cc(Cl)ccc2NC1=O (stereo not shown) [Example 52, N-(7-Chloro-2-oxo-5-phenyl-2,3-dihydro-1H-benzo[e][1,4]diazepin-3-yl)-isobutyramide], the IC50 was 3 µM. For O=C(NC1N=C(c2ccccc2)c2ccccc2NC1=O)c1ccno1 (stereo not shown) [Example 30, Isoxazole-5-carboxylic acid (2-oxo-5-phenyl-2,3-dihydro-1H-benzo[e][1,4]diazepin-3-yl)-amide], the IC50 was 3 µM. Work on O=C(NC1N=C(c2ccccc2)c2ccccc2NC1=O)c1ccccc1C(F)(F)F (stereo not shown) [Example 22, N-(2-oxo-5-phenyl-2,3-dihydro-1H-benzo[e][1,4]diazepin-3-yl)-2-trifluoromethyl-benzamide] yielded an IC50 of 4 µM. Compound Cc1ccccc1C(=O)NC1N=C(c2ccccc2)c2ccccc2NC1=O (stereo not shown) [Example 24, 2-Methyl-N-(2-oxo-5-phenyl-2,3-dihydro-1H-benzo[e][1,4]diazepin-3-yl)-benzamide] has an IC50 of 3 µM. Compound O=C1Nc2ccccc2C(c2ccccc2)=NC1NCc1ccc(C(F)(F)F)cc1 (stereo not shown) [Example 49, 5-Phenyl-3-(4-trifluoromethyl-benzylamino)-1,3-dihydro-benzo[e][1,4]diazepin-2-one] has an IC50 of 50 µM. In the case of O=C(NC1N=C(c2ccccc2)c2ccccc2NC1=O)c1ccncc1 (stereo not shown) [Example 33, N-(2-Oxo-5-phenyl-2,3-dihydro-1H-benzo[e][1,4]diazepin-3-yl)-isonicotinamide], the IC50 is reported as 2.5 µM.
